# Reference: PubChem BioAssay AID1259407 (Chemical Carcinogenesis Research Information System (CCRIS), 2018)
# Calls of active or inactive are those of the source. The rule behind the calls is not given here.
# System: CCRIS mutagenicity, Ames/micronucleus/aberration tests
# Assay: CCRIS mutagenicity studies
# [1] = Test System: AMES SALMONELLA TYPHIMURIUM, Strain/Indicator: TA98, Metabolic Activation: NONE, Method: PREINCUBATION
# [2] = Test System: AMES SALMONELLA TYPHIMURIUM, Strain/Indicator: TA100, Metabolic Activation: NONE, Method: PREINCUBATION
# [3] = Test System: AMES SALMONELLA TYPHIMURIUM, Strain/Indicator: TA102, Metabolic Activation: NONE, Method: PREINCUBATION
# [4] = Test System: AMES SALMONELLA TYPHIMURIUM, Strain/Indicator: TA104, Metabolic Activation: NONE, Method: PREINCUBATION
# [5] = Test System: AMES SALMONELLA TYPHIMURIUM, Strain/Indicator: TA1535, Metabolic Activation: NONE, Method: PREINCUBATION
# [6] = Test System: AMES SALMONELLA TYPHIMURIUM, Strain/Indicator: TA1537, Metabolic Activation: NONE, Method: PREINCUBATION
# [7] = Test System: AMES SALMONELLA TYPHIMURIUM, Strain/Indicator: TA100, Metabolic Activation: NONE, Method: STANDARD PLATE
# [8] = Test System: AMES SALMONELLA TYPHIMURIUM, Strain/Indicator: TA100, Metabolic Activation: RAT, LIVER, S-9, AROCLOR 1254, Method: PREINCUBATION
compound,measurement,setting,value
C/C(C=O)=C\c1ccccc1,mutagenic call,"Test System: AMES SALMONELLA TYPHIMURIUM, Strain/Indicator: TA98, Metabolic Activation: HAMSTER, LIVER, S-9, AROCLOR 1254 (10%), Method: PREINCUBATION",inactive; negative
same,mutagenic call,[1],inactive; negative
same,mutagenic call,"Test System: AMES SALMONELLA TYPHIMURIUM, Strain/Indicator: TA98, Metabolic Activation: RAT, LIVER, S-9, AROCLOR 1254 (10%), Method: PREINCUBATION",inactive; negative
same,mutagenic call,"Test System: AMES SALMONELLA TYPHIMURIUM, Strain/Indicator: TA100, Metabolic Activation: HAMSTER, LIVER, S-9, AROCLOR 1254 (10%), Method: PREINCUBATION",inactive; negative
same,mutagenic call,[2],inactive; negative
same,mutagenic call,"Test System: AMES SALMONELLA TYPHIMURIUM, Strain/Indicator: TA100, Metabolic Activation: RAT LIVER S-9, AROCLOR 1254, Method: PREINCUBATION",inactive; negative
same,mutagenic call,"Test System: AMES SALMONELLA TYPHIMURIUM, Strain/Indicator: TA100, Metabolic Activation: RAT, LIVER, S-9, AROCLOR 1254 (10%), Method: PREINCUBATION",inactive; negative
same,mutagenic call,"Test System: AMES SALMONELLA TYPHIMURIUM, Strain/Indicator: TA102, Metabolic Activation: MOUSE LIVER S-9, AROCLOR 1254, Method: PREINCUBATION",inactive; negative
same,mutagenic call,[3],inactive; negative
same,mutagenic call,"Test System: AMES SALMONELLA TYPHIMURIUM, Strain/Indicator: TA102, Metabolic Activation: RAT LIVER S-9, AROCLOR 1254, Method: PREINCUBATION",inactive; negative
same,mutagenic call,"Test System: AMES SALMONELLA TYPHIMURIUM, Strain/Indicator: TA104, Metabolic Activation: MOUSE LIVER S-9, AROCLOR 1254, Method: PREINCUBATION",inactive; negative
same,mutagenic call,[4],inactive; negative
same,mutagenic call,"Test System: AMES SALMONELLA TYPHIMURIUM, Strain/Indicator: TA104, Metabolic Activation: RAT LIVER S-9, AROCLOR 1254, Method: PREINCUBATION",inactive; negative
same,mutagenic call,"Test System: AMES SALMONELLA TYPHIMURIUM, Strain/Indicator: TA1535, Metabolic Activation: HAMSTER, LIVER, S-9, AROCLOR 1254 (10%), Method: PREINCUBATION",inactive; negative
same,mutagenic call,[5],inactive; negative
same,mutagenic call,"Test System: AMES SALMONELLA TYPHIMURIUM, Strain/Indicator: TA1535, Metabolic Activation: RAT, LIVER, S-9, AROCLOR 1254 (10%), Method: PREINCUBATION",inactive; negative
same,mutagenic call,"Test System: AMES SALMONELLA TYPHIMURIUM, Strain/Indicator: TA1537, Metabolic Activation: HAMSTER, LIVER, S-9, AROCLOR 1254 (10%), Method: PREINCUBATION",inactive; negative
same,mutagenic call,[6],inactive; negative
same,mutagenic call,"Test System: AMES SALMONELLA TYPHIMURIUM, Strain/Indicator: TA1537, Metabolic Activation: RAT, LIVER, S-9, AROCLOR 1254 (10%), Method: PREINCUBATION",inactive; negative
O=C1C[C@@H]2NCCCNCCCCN(CCCN1)C(=O)[C@@H]1c3cc2ccc3O[C@H]1c1ccc(O)cc1,mutagenic call,"Test System: AMES SALMONELLA TYPHIMURIUM, Strain/Indicator: TA97A, Metabolic Activation: NONE",inactive; negative
same,mutagenic call,"Test System: AMES SALMONELLA TYPHIMURIUM, Strain/Indicator: TA97A, Metabolic Activation: RAT, LIVER, S-9",inactive; negative
same,mutagenic call,"Test System: AMES SALMONELLA TYPHIMURIUM, Strain/Indicator: TA98, Metabolic Activation: NONE",active; positive
same,mutagenic call,"Test System: AMES SALMONELLA TYPHIMURIUM, Strain/Indicator: TA98, Metabolic Activation: RAT, LIVER, S-9",active; positive
same,mutagenic call,"Test System: AMES SALMONELLA TYPHIMURIUM, Strain/Indicator: TA100, Metabolic Activation: NONE",active; positive
same,mutagenic call,"Test System: AMES SALMONELLA TYPHIMURIUM, Strain/Indicator: TA100, Metabolic Activation: RAT, LIVER, S-9",active; positive
Nc1c2ccccc2nc2ccc(O)cc12,mutagenic call,[6],active; positive
CCOC(=O)CNC(=O)CBr,mutagenic call,"Test System: AMES SALMONELLA TYPHIMURIUM, Strain/Indicator: TA100, Metabolic Activation: MOUSE, LIVER, S-9, AROCLOR 1254, Method: STANDARD PLATE",inactive; negative
same,mutagenic call,[7],inactive; negative
Nc1nc(=O)n([C@H]2C[C@H](O)[C@@H](CO)O2)cc1CCCl,mutagenic call,"Test System: AMES SALMONELLA TYPHIMURIUM, Strain/Indicator: TA97, Metabolic Activation: NONE, Method: PREINCUBATION",inactive; negative
same,mutagenic call,"Test System: AMES SALMONELLA TYPHIMURIUM, Strain/Indicator: TA97, Metabolic Activation: RAT, LIVER, S-9, AROCLOR 1254, Method: PREINCUBATION",inactive; negative
same,mutagenic call,[1],inactive; negative
same,mutagenic call,"Test System: AMES SALMONELLA TYPHIMURIUM, Strain/Indicator: TA98, Metabolic Activation: RAT, LIVER, S-9, AROCLOR 1254, Method: PREINCUBATION",inactive; negative
same,mutagenic call,[2],inactive; negative
same,mutagenic call,[8],inactive; negative
same,mutagenic call,[3],inactive; negative
same,mutagenic call,"Test System: AMES SALMONELLA TYPHIMURIUM, Strain/Indicator: TA102, Metabolic Activation: RAT, LIVER, S-9, AROCLOR 1254, Method: PREINCUBATION",inactive; negative
same,mutagenic call,[4],inactive; negative
same,mutagenic call,"Test System: AMES SALMONELLA TYPHIMURIUM, Strain/Indicator: TA104, Metabolic Activation: RAT, LIVER, S-9, AROCLOR 1254, Method: PREINCUBATION",inactive; negative
same,mutagenic call,[5],inactive; negative
same,mutagenic call,"Test System: AMES SALMONELLA TYPHIMURIUM, Strain/Indicator: TA1535, Metabolic Activation: RAT, LIVER, S-9, AROCLOR 1254, Method: PREINCUBATION",inactive; negative
same,mutagenic call,[6],inactive; negative
same,mutagenic call,"Test System: AMES SALMONELLA TYPHIMURIUM, Strain/Indicator: TA1537, Metabolic Activation: RAT, LIVER, S-9, AROCLOR 1254, Method: PREINCUBATION",inactive; negative
same,mutagenic call,"Test System: AMES SALMONELLA TYPHIMURIUM, Strain/Indicator: TA1538, Metabolic Activation: NONE, Method: PREINCUBATION",inactive; negative
same,mutagenic call,"Test System: AMES SALMONELLA TYPHIMURIUM, Strain/Indicator: TA1538, Metabolic Activation: RAT, LIVER, S-9, AROCLOR 1254, Method: PREINCUBATION",inactive; negative
same,mutagenic call,"Test System: CHINESE HAMSTER V-79, Strain/Indicator: V-79/8-AZAGUANINE, Metabolic Activation: NONE",inactive; negative
OC1c2cccc3c2[C@]2(O[C@H]2C1O)c1ccccc1-3 (stereo partly drawn),mutagenic call,"Test System: AMES SALMONELLA TYPHIMURIUM, Strain/Indicator: TM677, Metabolic Activation: NONE, Method: PREINCUBATION",active; positive
same,mutagenic call,"Test System: AMES SALMONELLA TYPHIMURIUM, Strain/Indicator: TM677, Metabolic Activation: RAT, LIVER, POSTMITOCHONDRIAL SUPERNATANT, AROCLOR 1254, Method: PREINCUBATION",active; positive
c1ccc2c(c1)C1=c3c-2cc2cccc4ccc(c3c42)C2OC12 (stereo not drawn),mutagenic call,[7],active; positive
O=C(O)c1ccccc1C1=c2cc3c4c(c2Oc2c1cc1c5c2CCCN5CCC1)CCC[N+]=4CCC3,mutagenic call,"Test System: AMES SALMONELLA TYPHIMURIUM, Strain/Indicator: TA1538, Metabolic Activation: NONE, Method: STANDARD PLATE",inactive; negative
same,mutagenic call,"Test System: AMES SALMONELLA TYPHIMURIUM, Strain/Indicator: TA1538, Metabolic Activation: RAT, LIVER, S-9, AROCLOR 1254, Method: STANDARD PLATE",inactive; negative
C[n+]1cccc(-c2ccc[n+](C)c2)c1,mutagenic call,"Test System: AMES SALMONELLA TYPHIMURIUM, Strain/Indicator: TA97, Metabolic Activation: RAT, LIVER, S-9, PHENOBARBITAL, Method: STANDARD PLATE",inactive; negative
same,mutagenic call,"Test System: AMES SALMONELLA TYPHIMURIUM, Strain/Indicator: TA98, Metabolic Activation: RAT, LIVER, S-9, PHENOBARBITAL, Method: STANDARD PLATE",inactive; negative
same,mutagenic call,"Test System: AMES SALMONELLA TYPHIMURIUM, Strain/Indicator: TA100, Metabolic Activation: RAT, LIVER, S-9, PHENOBARBITAL, Method: STANDARD PLATE",active; positive
same,mutagenic call,"Test System: AMES SALMONELLA TYPHIMURIUM, Strain/Indicator: TA1535, Metabolic Activation: RAT, LIVER, S-9, PHENOBARBITAL, Method: STANDARD PLATE",inactive; negative
same,mutagenic call,"Test System: AMES SALMONELLA TYPHIMURIUM, Strain/Indicator: TA1537, Metabolic Activation: RAT, LIVER, S-9, PHENOBARBITAL, Method: STANDARD PLATE",inactive; negative
same,mutagenic call,"Test System: AMES SALMONELLA TYPHIMURIUM, Strain/Indicator: TA1538, Metabolic Activation: RAT, LIVER, S-9, PHENOBARBITAL, Method: STANDARD PLATE",inactive; negative
CC/C=C/C=C/C=C/C=C/C=C\OC[C@@H](O)CO,mutagenic call,[2],active; positive
same,mutagenic call,[8],active; positive
